We go through 4 compounds from PMC7504751, “Potential of 2-Chloro-N-(4-fluoro-3-nitrophenyl)acetamide Against Klebsiella pneumoniae and In Vitro Toxicity Analysis” (Molecules, 2020).

Structures are written as SMILES. ≈ marks a conversion by molar mass, not a printed value. Entries after “also recorded” stand apart in the source; their conditions may differ. Like-named read-outs stand apart in the source and are kept apart here.

Data set [1] deals with Candida albicans. Set-up: method as in doi:10.4067/S0717-97072003000400005. Particulars: cited from earlier work.
In data set [2] the test system is K. pneumoniae strains. In words: Minimum inhibitory concentration (MIC), broth microdilution. Format: cell-based, Klebsiella pneumoniae. The procedure:
The clinical isolates strains of K. pneumoniae were used in this study belong to the MICOTECA of the Antibacterial and Antifungal Activity Research Laboratory of the Federal University of Paraíba, Brazil, which are: KP-25, KP-26, KP-56, KP-83, KP-87, KP-138, KP-143, KP-166, KP-173, KP-176, KP-260, and KP-326. The American Type Culture Collection strain ATCC-700603 was used as controls. For use in the assays, bacterial suspensions were prepared in 0.9% saline solution, from fresh cultures, and adjusted to the McFarland standard 0.5 scale.
To assess the antibacterial activity of substances A1 and A2, the minimum inhibitory concentration against K. pneumoniae strains was determined. The substances were solubilized in dimethyl sulfoxide (DMSO) at 5% and Tween-80 at 2%, to obtain emulsions in the concentrations necessary for use in the tests. The MIC determination was performed using the broth microdilution technique in a 96-well plate to obtain different concentrations of A1 and A2 [35]. In parallel, controls for sterility, cell viability, and interference of the vehicles used in the preparation of substance emulsions (DMSO and Tween-80) were also performed. MIC is defined as the lowest concentration capable of causing complete inhibition of bacterial growth after 24 h at 35 ± 2 °C.
In general terms: Broth dilution looks for growth in wells or tubes with falling amounts of substance.

Data set [3] relates to oral mucosa cells. Put plainly: Genotoxic effects on oral mucosa cells. Particulars: positive control, hydrogen peroxide 0.0005%. Type of data set: cell-based, human. How it is done:
The tests were performed according to the recommendations established by the Code of Ethics of the World Medical Association, after approval by the ethics committee of the Centro Universitário de Patos (number: 3621284). Blood samples (types A, B, and O) and smears of oral mucosa were donated by young, healthy adults. First, the oral mucosa cells were collected from the donors, which was done with a cyto-brush (smear collector) in the cheek area, and the material obtained was placed in 5 mL of 0.9% NaCl. As controls, cells treated with hydrogen peroxide −0.0005% (positive control) and untreated cells (negative control) were used. The cells were washed twice with saline and centrifuged for 10 min at 400× g and kept in saline. After the third wash, the cells were exposed (ex vivo) to A2 substance at 50, 100, 500, and 1000 µg/mL concentrations for 30 min. The material was centrifuged and the supernatant was discarded before smear preparation. The cells were homogenized in a vortex and placed on the slides at room temperature for drying for 15 min. Then, they were fixed with methanol: acetic acid (3:1) for 15 min and stained with 2% Giemsa.

By melting point is commonly meant the temperature, or range, at which the solid turns liquid. For orientation: MIC means the least concentration at which growth counts as inhibited.

For `O=C(CCl)Nc1ccccc1O` [2-chloro-N-(2-hydroxyphenyl) acetamide], the “C. albicans strains inhibited” value in data set [1] is reported as 96.6%.

Regarding `CC(=O)Nc1ccc(F)c([N+](=O)[O-])c1` [A1, N-(4-fluoro-3-nitrophenyl)acetamide], the melting point is 142 to 144 °C. Besides, in data set [2] (Klebsiella pneumoniae, ATCC700603, strain ATCC-700603, 24 h at 35 ± 2 °C, read-out: MIC), the MIC came to 1020 µg/mL (≈ 5.17 mM). Also, the MIC in data set [2] (Klebsiella pneumoniae, 100% of the K. pneumoniae strains used in this study, read-out: MIC) turned out to be 1020 µg/mL (≈ 5.17 mM). For the same compound, the minimum inhibitory concentration (MIC) in data set [2] (Klebsiella pneumoniae, strain KP-138, 24 h at 35 ± 2 °C, read-out: MIC) was 1020 µg/mL (≈ 5.17 mM). Further, the minimal inhibitory concentration (MIC) in data set [2] (strain KP-25, 24 h at 35 ± 2 °C) is on record as 1024 µg/mL (≈ 5.17 mM). The MIC in data set [2] (strain KP-26, 24 h at 35 ± 2 °C) was determined as 1024 µg/mL (≈ 5.17 mM). The MIC in data set [2] (strain KP-56, 24 h at 35 ± 2 °C) was determined as 1024 µg/mL (≈ 5.17 mM). For the same compound, the MIC in data set [2] (strain KP-83, 24 h at 35 ± 2 °C) is 1024 µg/mL (≈ 5.17 mM). The compound further showed an MIC in data set [2] (strain KP-87, 24 h at 35 ± 2 °C) of 1024 µg/mL (≈ 5.17 mM). Also, in data set [2] (strain KP-143, 24 h at 35 ± 2 °C), the MIC came to 1024 µg/mL (≈ 5.17 mM). Further, in data set [2] (strain KP-166, 24 h at 35 ± 2 °C), the minimum inhibitory concentration (MIC) is on record as 1024 µg/mL (≈ 5.17 mM). This compound came in with an MIC in data set [2] (strain KP-173, 24 h at 35 ± 2 °C) of 1024 µg/mL (≈ 5.17 mM). Also, the MIC in data set [2] (strain KP-176, 24 h at 35 ± 2 °C) stood at 1024 µg/mL (≈ 5.17 mM). In data set [2] (strain KP-260, 24 h at 35 ± 2 °C), this compound returned an MIC of 1024 µg/mL (≈ 5.17 mM). In data set [2] (strain KP-326, 24 h at 35 ± 2 °C), this compound displayed an MIC of 1024 µg/mL (≈ 5.17 mM).

Turning to `CC(=O)Nc1ccccc1O` [N-(2-hydroxyphenyl) acetamide], the “antimicrobial activity against Candida albicans” value in data set [1] is “did not have the ability to inhibit fungal growth; also recorded: absence of activity”.

For the compound `OO` [PC-H2O2, hydrogen peroxide, reference compound], in data set [3], the Binucleation is reported as 1.00%, the Karyolysis is 7.00%, the Karyorrhexis worked out at 10.75% and the Micronucleus came out at 6.50%. In data set [3], this compound yielded a Normal of 77.75%.
